From patent US20260265216A1, “NOVEL THIOREDOXIN REDUCTASE INHIBITORS” (GENEXPLAIN GMBH, priority 2021, published 2026)
Counter-ions that a name gives are not always drawn.

Tests used:
Solubility = format: physicochemical; conditions: solvent in which soluble
MCF7-Cas9 = test: Growth suppression assay (resazurin); format: cell-based; conditions: 48 hours, hydrochloride
Method: (§1) Cells were grown in 96-well plates at a density of 3000 cells per well with or without doxycycline and treated with compounds. After 48 hours of incubation the proliferative cell reagent resazurin (Thermo Fisher Scientific) was added to the cells. The degree of resazurin reduction, which reflects cell viability, was measured by microplate reader by monitoring the absorbance at 570 nm and 600 nm, according to the manufacturer.
(§2) Two carcinoma cell lines, MCF7 (breast carcinoma) and HCT116 (colon carcinoma) grown in 96-well plates, were treated with increasing concentrations of the synthesized compounds, ranging from […]. After 48 hours of incubation the proliferative cell reagent resazurin was added to the cells. The degree of resazurin reduction, which reflects cell viability, was measured by microplate reader by monitoring the absorbance at 570 nm and 600 nm, according to the manufacturer and the IC50 was determined (Table 1).

HCT116-Cas9 = test: Growth suppression assay (resazurin); format: cell-based; conditions: 48 hours
Method: as §1, §2

N#Cc1c(-c2cccnc2)[n+]([O-])c2cc(F)c(N3CCOCC3)cc2[n+]1[O-] [Compound 1d, 6-Fluoro-7-(morpholin-4-yl)-3-(pyridin-3-yl)quinoxaline-2-carbonitrile-1,4-dioxide]
Solubility (Solubility): Warm DMSO

N#Cc1c(-c2ccncc2)[n+]([O-])c2cc(N3CCOCC3)c(F)cc2[n+]1[O-] [Compound 1a, 7-Fluoro-6-(morpholin-4-yl)-3-(pyridin-4-yl)quinoxaline-2-carbonitrile 1,4-dioxide]
Solubility (Solubility): Warm DMSO

N#Cc1c(-c2cccnc2)[n+]([O-])c2cc(F)c(N3CCCC3)cc2[n+]1[O-] [Compound 1f, 6-Fluoro-7-(pyrrolidin-1-yl)-3-(pyridin-3-yl)quinoxaline-2-carbonitrile-1,4-dioxide]
Solubility (Solubility): Warm DMSO

N#Cc1c(-c2ccncc2)[n+]([O-])c2cc(N3CCOCC3)c(F)cc2[n+]1[O-] [1a*HCl, 7-Fluoro-6-(morpholin-4-yl)-3-(pyridin-4-yl)quinoxaline-2-carbonitrile-1,4-dioxide hydrochloride]
IC50 (MCF7-Cas9): > 10 µM | IC50 (HCT116-Cas9; hydrochloride): 9.3 µM

N#Cc1c(-c2ccncc2)[n+]([O-])c2cc(F)c(N3CCOCC3)cc2[n+]1[O-] [1b*MsOH, 6-Fluoro-7-(morpholin-4-yl)-3-(pyridin-4-yl)quinoxaline-2-carbonitrile-1,4-dioxide methanesulfonate]
IC50 (HCT116-Cas9; methanesulfonate): 3.4 µM

N#Cc1c(-c2ccncc2)[n+]([O-])c2cc(F)c(N3CCOCC3)cc2[n+]1[O-] [Compound 1b, 6-Fluoro-7-(morpholin-4-yl)-3-(pyridin-4-yl)quinoxaline-2-carbonitrile-1,4-dioxide]
Solubility (Solubility): Warm DMSO

N#Cc1c(-c2cccnc2)[n+]([O-])c2cc(N3CCOCC3)c(F)cc2[n+]1[O-] [Compound 1c, 7-Fluoro-6-(morpholin-4-yl)-3-(pyridin-3-yl)quinoxaline-2-carbonitrile-1,4-dioxide]
Solubility (Solubility): Warm DMSO

N#Cc1c(-c2cccnc2)[n+]([O-])c2cc(F)c(N3CCCCC3)cc2[n+]1[O-] [Compound 1g, 6-Fluoro-7-(piperidin-1-yl)-3-(pyridin-3-yl)quinoxaline-2-carbonitrile-1,4-dioxide]
Solubility (Solubility): Warm DMSO
